Here are results for 41 molecules from US6949571B2, “1,2-dihydropyridine compounds, process for preparation of the same and use thereof” (Eisai Co., Ltd., priority 2000, dated 2005).

Where a name gives a salt, the structure may show the parent alone.

The IC50 is the midpoint of a concentration-inhibition curve.
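Further: primary rat embryonic cortical neurons grown on an astrocyte layer in 96-well plates, used after at least 8 to 10 days in culture, Fura2-AM fluorescence ratio at 340/380 nm excitation.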

This assay deals with AMPA receptor. The conditions noted are these: Table 2; suppression of AMPA-induced calcium influx into nerve cells.
As for `N#CCc1ccc(-n2cc(-c3ccccn3)cc(-c3ccccc3C#N)c2=O)cc1` [Example 150, 3-(2-Cyanophenyl)-5-(2-pyridyl)-1-(4-cyanomethylphenyl)-1,2-dihydropyridin-2-one], the IC50 turned out to be 300 nM.

For the molecule `N#CCc1ccccc1-n1cc(-c2ccccn2)cc(-c2ccccc2C#N)c1=O` [Example 151, 3-(2-Cyanophenyl)-5-(2-pyridyl)-1-(2-cyanomethylphenyl)-1,2-dihydropyridin-2-one], the IC50 stood at 300 nM.

Regarding `CCS(=O)(=O)c1ccc(-n2cc(-c3ccccn3)cc(-c3ccccc3C#N)c2=O)cn1` [Example 152, 3-(2-Cyanophenyl)-5-(2-pyridyl)-1-(2-ethylsulfonylpyridin-5-yl)-1,2-dihydropyridin-2-one], the IC50 is 4000 nM.

For `CN(C)Cc1ccccc1-c1cc(-c2ccccn2)cn(-c2ccccc2)c1=O` [Example 154, 3-(2-Dimethylaminomethylphenyl)-5-(2-pyridyl)-1-phenyl-1,2-dihydropyridin-2-one dihydrochloride], the IC50 was determined as 5000 nM.

As for `CCN(CC)Cc1cccc(-c2cc(-c3ccccc3C#N)c(=O)n(-c3ccccc3)c2)n1` [Example 157, 3-(2-Cyanophenyl)-5-(6-diethylaminomethyl-2-pyridyl)-1-phenyl-1,2-dihydropyridin-2-one], the half-maximal inhibitory concentration (IC50) is 500 nM.

Turning to `N#Cc1ccccc1-c1cc(-c2ccccn2)cn(-c2ccccn2)c1=O` [Example 159, 3-(2-Cyanophenyl)-1-(2-pyridyl)-5-(2-pyridyl)-1,2-dihydropyridin-2-one], the IC50 worked out at 1600 nM.

Turning to `N#Cc1ccccc1-c1cc(-c2ccc(O)cn2)cn(-c2ccccc2)c1=O` [Example 163, 3-(2-Cyanophenyl)-5-(5-hydroxypyridin-2-yl)-1-phenyl-1,2-dihydropyridin-2-one], the IC50 stood at 8200 nM.

In the case of `O=c1c(-c2cccc(O)n2)cc(-c2ccccn2)cn1-c1ccccc1` [Example 165, 3-(2-Hydroxypyridin-6-yl)-1-phenyl-5-(2-pyridyl)-1,2-dihydropyridin-2-one], the IC50 worked out at 400 nM.

Consider `N#Cc1ccccc1-c1cc(-c2ccccn2)cn(-c2ccc3nc(N)sc3c2)c1=O` [Example 166, 1-(2-Aminobenzothiazol-6-yl)-3-(2-cyanophenyl)-5-(2-pyridyl)-1,2-dihydropyridin-2-one], for which the IC50 was 300 nM.

In the case of `N#Cc1ccccc1-c1cc(-c2ccccn2)cn(C2CCCC2)c1=O` [Example 171, 3-(2-Cyanophenyl)-1-cyclopentyl-5-(2-pyridyl)-1,2-dihydropyridin-2-one], the IC50 came to 2300 nM.

Regarding `N#Cc1ccccc1-c1cc(-c2cccc[n+]2[O-])cn(-c2ccccc2)c1=O` [Example 173, 3-(2-Cyanophenyl)-5-(2-pyridyl 1-oxide)-1-phenyl-1,2-dihydropyridin-2-one], the IC50 stood at 4200 nM.

Turning to `O=c1c(Nc2ccccc2)cc(-c2ccccn2)cn1-c1ccccc1` [Example 174, 3-Phenylamino-5-(2-pyridyl)-1-phenyl-1,2-dihydropyridin-2-one], the IC50 was determined as 3300 nM.

In the case of `O=c1c(NC23CC4CC(CC(C4)C2)C3)cc(-c2ccccn2)cn1-c1ccccc1` [Example 176, 3-(1-Adamantylamino)-5-(2-pyridyl)-1-phenyl-1,2-dihydropyridin-2-one], the IC50 was found to be 5400 nM.

Consider `O=c1c(C23CC4CC(CC(C4)C2)C3)cc(-c2ccccn2)cn1-c1ccccc1` [Example 178, 3-(1-Adamantyl)-5-(2-pyridyl)-1-phenyl-1,2-dihydropyridin-2-one], for which the IC50 stood at 2000 nM.

With `N#Cc1ccccc1-c1cc(-c2ccccn2)cn(C2=CCCN(Cc3ccccc3)C2)c1=O` [Example 180, 3-(2-Cyanophenyl)-5-(2-pyridyl)-1-(1-benzyl-1,2,3,6-tetrahydropyridin-5-yl)-1,2-dihydropyridin-2-one], the IC50 stood at 500 nM.

For the molecule `N#Cc1ccccc1-c1cc(-c2nc3ccccc3n2-c2ccccc2)cn(-c2ccccc2)c1=O` [Example 182, 3-(2-Cyanophenyl)-5-(1-phenylbenzimidazol-2-yl)-1-phenyl-1,2-dihydropyridin-2-one], the IC50 was found to be 6000 nM.

For the molecule `O=c1c(-c2ccccc2Cl)cc(-c2nc3ccccc3o2)cn1-c1ccccc1` [Example 184, 3-(2-Chlorophenyl)-5-(2-benzoxazolyl)-1-phenyl-1,2-dihydropyridin-2-one], the IC50 was 2300 nM.

In the case of `O=c1c(-c2ccccc2Cl)cc(COc2ccccc2)cn1-c1ccccc1` [Example 185, 3-(2-Chlorophenyl)-5-phenoxymethyl-1-phenyl-1,2-dihydropyridin-2-one], the IC50 was 1700 nM.

As for `O=c1c(C=Cc2ccccn2)cc(-c2ccccn2)cn1-c1ccccc1` [Example 187, 3-(2-Pyridylethenyl)-5-(2-pyridyl)-1-phenyl-1,2-dihydropyridin-2-one], the IC50 came to 6100 nM.

On to `O=c1c(Sc2ccc(Cl)cc2)cc(-c2ccccn2)cn1-c1ccccc1` [Example 188, 3-(4-Chlorophenylthio)-5-(2-pyridyl)-1-phenyl-1,2-dihydropyridin-2-one], for which the IC50 worked out at 8500 nM.

`O=c1c(-c2nc3ccccc3[nH]2)cc(-c2ccccn2)cn1-c1ccccc1` [Example 190, 3-(1H-Benzimidazol-2-yl)-5-(2-pyridyl)-1-phenyl-1,2-dihydropyridin-2-one]: the IC50 stood at 600 nM.

On to `O=c1c(C2CCCCC2)cc(-c2ccccn2)cn1-c1ccccc1` [Example 192, 3-Cyclohexyl-5-(2-pyridyl)-1-phenyl-1,2-dihydropyridin-2-one], for which the IC50 was 1100 nM.

For the molecule `Cc1nc(-c2ccccc2-c2cc(-c3ccccn3)cn(-c3ccccc3)c2=O)no1` [Example 193, 3-[2-(5-Methyl-1,2,4-oxadiazol-3-yl)phenyl]-1-phenyl-5-(2-pyridyl)-1,2-dihydropyridin-2-one], the IC50 was 400 nM.

Consider `Cc1cccc(-c2cc(-c3ccccc3C#N)c(=O)n(-c3ccccc3)c2)n1` [Example 195, 3-(2-Cyanophenyl)-5-(6-methylpyridin-2-yl)-1-phenyl-1,2-dihydropyridin-2-one], for which the half-inhibitory concentration (IC50) came out at 200 nM.

For the molecule `Cc1ccc(-c2cc(-c3ccccc3C#N)c(=O)n(-c3ccccc3)c2)nc1` [Example 196, 3-(2-Cyanophenyl)-5-(5-methylpyridin-2-yl)-1-phenyl-1,2-dihydropyridin-2-one], the IC50 was 300 nM.

On to `Cc1ccnc(-c2cc(-c3ccccc3C#N)c(=O)n(-c3ccccc3)c2)c1` [Example 197, 3-(2-Cyanophenyl)-5-(4-methylpyridin-2-yl)-1-phenyl-1,2-dihydropyridin-2-one], for which the IC50 amounted to 2900 nM.

Turning to `N#Cc1ccccc1-c1cc(-c2ncccc2O)cn(-c2ccccc2)c1=O` [Example 198, 3-(2-Cyanophenyl)-5-(3-hydroxypyridin-2-yl)-1-phenyl-1,2-dihydropyridin-2-one], the IC50 came to 300 nM.

As to `COc1ccc(-c2cc(-c3ccccc3C#N)c(=O)n(-c3ccccc3)c2)cn1` [Example 200, 3-(2-Cyanophenyl)-5-(2-methoxypyridin-5-yl)-1-phenyl-1,2-dihydropyridin-2-one], the IC50 was 2000 nM.

As to `N#Cc1ccccc1-c1cc(-c2nccs2)cn(-c2ccccc2)c1=O` [Example 201, 3-(2-Cyanophenyl)-1-phenyl-5-(2-thiazoyl)-1,2-dihydropyridin-2-one], the IC50 is 200 nM.

On to `N#Cc1ccccc1-c1cc(-c2ccncn2)cn(-c2ccccc2)c1=O` [Example 202, 3-(2-Cyanophenyl)-1-phenyl-5-(4-pyrimidinyl)-1,2-dihydropyridin-2-one], for which the IC50 came out at 700 nM.

As for `N#Cc1ccccc1-c1cc(-c2cccnn2)cn(-c2ccccc2)c1=O` [Example 204, 3-(2-Cyanophenyl)-1-phenyl-5-(3-pyridazyl)-1,2-dihydropyridin-2-one], the IC50 stood at 1600 nM.

As for `COc1cccc(-c2cc(-c3ccccc3C#N)c(=O)n(-c3ccccc3)c2)n1` [Example 206, 3-(2-Cyanophenyl)-5-(2-methoxypyridin-6-yl)-1-phenyl-1,2-dihydropyridin-2-one], the IC50 is 500 nM.

In the case of `N#Cc1ccccc1-c1cc(C2=COCCO2)cn(-c2ccccc2)c1=O` [Example 209, 3-(2-Cyanophenyl)-5-(5.6-dihydro-1.4-dioxin-2-yl)-1-phenyl-1,2-dihydropyridin-2-one], the IC50 was 7000 nM.

`N#Cc1ccccc1-c1cc(-c2cccc3ccccc23)cn(-c2cccnc2)c1=O` [Example 210, 3-(2-Cyanophenyl)-5-(1-naphthyl)-1-(3-pyridyl)-1,2-dihydropyridin-2-one]: the IC50 came out at 5200 nM.

For the molecule `N#Cc1ccccc1-c1cc(-c2ccc3ccccc3c2)cn(-c2cccnc2)c1=O` [Example 211, 3-(2-Cyanophenyl)-5-(2-naphthyl)-1-(3-pyridyl)-1,2-dihydropyridin-2-one], the IC50 is 3600 nM.

Take `N#Cc1ccccc1-c1cc(-c2ccccn2)cn(-c2ccc(N)cc2)c1=O` [Example 215, 1-(4-Aminophenyl)-3-(2-cyanophenyl)-5-(2-pyridyl)-1,2-dihydropyridin-2-one]: the IC50 amounted to 100 nM.

Regarding `N#Cc1ccccc1-c1cc(-c2ncccc2N)cn(-c2ccccc2)c1=O` [Example 216, 5-(3-Aminopyridin-2-yl)-3-(2-cyanophenyl)-1-phenyl-1,2-dihydropyridin-2-one], the 50% inhibitory concentration (IC50) was 2400 nM.

On to `N#Cc1ccccc1-c1cc(-c2ccc(N)cn2)cn(-c2ccccc2)c1=O` [Example 217, 5-(5-Aminopyridin-2-yl)-3-(2-cyanophenyl)-1-phenyl-1,2-dihydropyridin-2-one], for which the IC50 was 1300 nM.

In the case of `N#Cc1ccccc1-c1cc(-c2ncccn2)cn(-c2cccc(N)c2)c1=O` [Example 218, 1-(3-Aminophenyl)-3-(2-cyanophenyl)-5-(2-pyrimidinyl)-1,2-dihydropyridin-2-one], the half-inhibitory concentration (IC50) turned out to be 100 nM.

`Nc1ccccc1-c1cc(-c2ccccn2)cn(-c2ccccc2)c1=O` [Example 219, 3-(2-Aminophenyl)-1-phenyl-5-(2-pyridyl)-1,2-dihydropyridin-2-one]: the IC50 was 3700 nM.

Take `Nc1cccc(-c2cc(-c3ccccn3)cn(-c3ccccc3)c2=O)c1` [Example 220, 3-(3-Aminophenyl)-1-phenyl-5-(2-pyridyl)-1,2-dihydropyridin-2-one]: the IC50 came to 600 nM.
